Measurements reported in patent US6440434B1, “Skin care composition” (Conopco, Inc., priority 1999, dated 2002).

Test system: acyl CoA retinol transferase (ARAT)
Assay: in vitro Microsomal Assay of retinol esterification, ARAT catalyzed (retinyl palmitate)
Assay type: biochemical, bovine
Conditions: 10 μM test compound; solvent blank = 100% ester formation

% INHIBITION, ARAT [%] | Compound
19 | CCCCCCCCCCCCC/C=C/[C@@H](O)[C@H](CO)NC(C)=O [Acetyl Sphingosine]
20 | CC(C)=CCCC(C)=CCCC(C)=CCO [Farnesol]
38 | CC(C)=CCC/C(C)=C/CC/C(C)=C/CC/C(C)=C/CO [Geranyl Geraniol]

Same assay, conditions: 100 μM test compound; solvent blank = 100% ester formation

Compound | % INHIBITION, ARAT [%]
CCCCCCCCCCCCC/C=C/[C@@H](O)[C@H](CO)NC(C)=O [Acetyl Sphingosine] | 62
CC=CC(=O)C1CCC(C)(C)C=C1C (stereo not shown) [Isodamascone] | 80
CC(=O)c1cc2c(cc1C)C(C)(C)C(C)CC2(C)C (stereo not shown) [Tonalid] | 50
Nc1ncnc2nc[nH]c12 [adenine, reference compound] | 0
CC12CCC(CC1=O)C2(C)C (stereo not shown) [camphor, reference compound] | 0
O=CC=Cc1ccccc1 [cinnamaldehyde, reference compound] | 0
O=C(NCO)N(CO)C1(CO)C(=O)NC(=O)N1CO (stereo not shown) [diazolidinyl urea, reference compound] | 0
CC(=O)CCC1C(C)=CCCC1(C)C (stereo not drawn) [dihydro alpha ionone, reference compound] | 13
CC12CCC(C1)C(C)(C)C2O (stereo not shown) [fenchyl alcohol, reference compound] | 12
Cc1ccc(C(C)C)c(O)c1 [thymol, reference compound] | 0
N[C@@H](Cc1c[nH]c2ccccc12)C(=O)O [tryptophan, reference compound] | 0
O=c1cc[nH]c(=O)[nH]1 [uracil, reference compound] | 0
Sandanol | 15

Further lines, results first:

% INHIBITION, ARAT [%] | Compound
67 | CCC(=O)/C=C/C1C(C)=CCCC1(C)C (stereo not drawn) [Alpha methyl ionone]
70 | CC1=CCC(CCC(C)CO)C1(C)C (stereo not shown) [Brahmanol]
43 | CC(C)=CCCC(C)=CCCC(C)=CCO [Farnesol]
81 | CC(C)=CCC/C(C)=C/CC/C(C)=C/CC/C(C)=C/CO [Geranyl Geraniol]
76 | CC(C)(O)CCCC1=CCC(C=O)CC1 (stereo not shown) [Lyral]
0 | C=C(C)C1CC=C(C)C(=O)C1 (stereo not shown) [carvone, reference compound]
0 | CC12CCC(CC1)C(C)(C)O2 [eucalyptol, reference compound]
18 | CC1=CC(C)C(CO)C(C)C1 (stereo not shown) [isocyclogeraniol, reference compound]
0 | Cc1ncc(C[n+]2csc(CCO)c2C)c(N)n1 [thiamine, reference compound]
0 | COc1cc(C=O)ccc1O [vanillin, reference compound]
8 | Isobutyl ionone
23 | Sandalone

Molecular target: T1, lecithin retinol acyl transferase (LRAT) (Bos taurus, UniProt Q9BGL2)
T1 sequence (Q9BGL2 1-230): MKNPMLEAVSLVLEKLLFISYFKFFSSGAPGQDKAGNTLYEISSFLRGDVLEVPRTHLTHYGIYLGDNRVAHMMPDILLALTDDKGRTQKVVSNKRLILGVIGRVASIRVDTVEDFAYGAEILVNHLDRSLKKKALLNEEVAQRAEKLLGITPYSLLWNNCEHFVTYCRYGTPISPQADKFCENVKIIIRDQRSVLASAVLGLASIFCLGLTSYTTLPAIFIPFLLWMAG
Assay: in vitro Microsomal Assay of retinol esterification, LRAT catalyzed (retinyl laurate)
Assay type: biochemical, bovine
Conditions: 10 μM test compound; solvent blank = 100% ester formation

% INHIBITION, LRAT [%] | Compound
10 | CCCCCCCCCCCCC/C=C/[C@@H](O)[C@H](CO)NC(C)=O [Acetyl Sphingosine]
52 | C/C=C/C(=O)C1=C(C)CCCC1(C)C [Beta damascone]
29 | C/C=C/C(=O)C1=C(C)C=CCC1(C)C [Damascenone]
64 | C/C=C/C(=O)C1C(C)C=CCC1(C)C (stereo not shown) [Delta damascone]
11 | CCCCC/C=C\C/C=C\CCCCCCCC(=O)N(CCO)CCO [Linoleamide-DEA (LODEA), Linoleamide-DEA]

Same assay, conditions: 100 μM test compound; solvent blank = 100% ester formation

Compound | % INHIBITION, LRAT [%]
CCCCCCCCCCCCC/C=C/[C@@H](O)[C@H](CO)NC(C)=O [Acetyl Sphingosine] | 50
C/C=C/C(=O)C1=C(C)CCCC1(C)C [Beta damascone] | 92
C/C=C/C(=O)C1=C(C)C=CCC1(C)C [Damascenone] | 79
CCOC(=O)C1=C(C)C=CCC1(C)C [Ethyl saffranate] | 49
CC(=O)/C(C)=C/C1C(C)=CCCC1(C)C (stereo not shown) [Gamma methyl ionone] | 38
CC=CC(=O)C1CCC(C)(C)C=C1C (stereo not shown) [Isodamascone] | 92
CCCCC/C=C\C/C=C\CCCCCCCC(=O)N(CCO)CCO [Linoleamide-DEA (LODEA), Linoleamide-DEA] | 51
CCCC(O)CCC1C(C)CCCC1(C)C (stereo not shown) [Timberol] | 33
CC(=O)CCC1C(C)=CCCC1(C)C (stereo not drawn) [dihydro alpha ionone, reference compound] | 18
Sandanol | 43

Results, then the compound that gave them:

% INHIBITION, LRAT [%] | Compound
77 | CCC(=O)/C=C/C1C(C)=CCCC1(C)C (stereo not drawn) [Alpha methyl ionone]
75 | CC1=CCC(CCC(C)CO)C1(C)C (stereo not shown) [Brahmanol]
95 | C/C=C/C(=O)C1C(C)C=CCC1(C)C (stereo not shown) [Delta damascone]
16 | CC1=CC(C)C(CO)C(C)C1 (stereo not shown) [isocyclogeraniol, reference compound]
45 | Isobutyl ionone
12 | Sandalone

Test system: LRAT and ARAT catalyzed retinol esterification
Assay: in vitro Microsomal Assay, retinol esterification overall (statements in words)
Assay type: biochemical, bovine
Conditions: not given

Compound | retinol esterification inhibition (in words)
CCCCCCCCCCCCC/C=C/[C@@H](O)[C@H](CO)NC(C)=O [Acetyl Sphingosine] | potent retinol esterification inhibitors
CC(C)=CCCC(C)=CCCC(C)=CCO [Farnesol] | inhibit retinol esterification
CCCCC/C=C\C/C=C\CCCCCCCC(=O)N(CCO)CCO [Linoleamide-DEA (LODEA), Linoleamide-DEA] | potent retinol esterification inhibitors
CCCCC/C=C\C/C=C\CCCCCCCC(=O)NCCO [Linoleamide-MEA (LOMEA), Linoleamide-MEA] | potent retinol esterification inhibitors

Same assay, conditions: listed as Geranyl geraniol

Compound | retinol esterification inhibition (in words)
CC(C)=CCC/C(C)=C/CC/C(C)=C/CC/C(C)=C/CO [Geranyl Geraniol] | substantially more potent esterification inhibitor, than farnesol

Same assay, conditions: listed as geranyl geraniol

Compound | retinol esterification inhibition (in words)
CC(C)=CCC/C(C)=C/CC/C(C)=C/CC/C(C)=C/CO [Geranyl Geraniol] | inhibit retinol esterification

Test system: procollagen-I synthesis in human dermal fibroblasts
Assay: Dot blot assay for procollagen-I in dermal fibroblast conditioned medium
Assay type: cell-based
Conditions: Table 6; 0.01 μM of each active, 24 hours; vehicle control = 100

Compound | Procollagen-I [%]
CCCCCCCCCCC/C=C\CCCCC(=O)O [PA, Petroselinic acid] | 85.1

Same assay, conditions: Table 7, PA/Retinol set; 0.01 μM of each active; control = 100%

Compound | Procollagen 1 [%]
CCCCCCCCCCC/C=C\CCCCC(=O)O [PA, Petroselinic acid] | 86.0
CC1=C(/C=C/C(C)=C/C=C/C(C)=C/CO)C(C)(C)CCC1 [Retinol, reference compound] | 95.0

Test system: decorin synthesis in human dermal fibroblasts
Assay: Dot blot assay for decorin in dermal fibroblast conditioned medium
Assay type: cell-based
Conditions: Table 6; 0.01 μM, 24 hours; vehicle control = 100

Compound | Decorin [%]
CCCCCCCCCCC/C=C\CCCCC(=O)O [PA, Petroselinic acid] | 101.8

Same assay, conditions: Table 6; 0.1 μg/ml, 24 hours; vehicle control = 100

Compound | Decorin [%]
CCCCC/C=C\C/C=C\CCCCCCCC(=O)NCCO [Linoleamide-MEA (LOMEA), Linoleamide-MEA] | 133.9

Same assay, conditions: Table 7, PA/Retinyl Linoleate set; 0.01 μM; control = 100%

Compound | Decorin [%]
CCCCCCCCCCC/C=C\CCCCC(=O)O [PA, Petroselinic acid] | 107.5

Same assay, conditions: Table 7, PA/Retinyl Linoleate set; 0.1 μM; control = 100%

Compound | Decorin [%]
CCCCC/C=C\C/C=C\CCCCCCCC(=O)OC/C=C(C)/C=C/C=C(C)/C=C/C1=C(C)CCCC1(C)C [Retinyl Linoleate] | 109.1

Same assay, conditions: Table 7, PA/trans Retinoic acid set; 0.01 μM of each active; control = 100%

Compound | Decorin [%]
CCCCCCCCCCC/C=C\CCCCC(=O)O [PA, Petroselinic acid] | 100.5
CC1=C(/C=C/C(C)=C/C=C/C(C)=C/C(=O)O)C(C)(C)CCC1 [trans Retinoic acid, reference compound] | 102.8
